From US6617491B2, “Use of drosophila melanogaster as a model for screening psychostimulant plant materials” (Council of Scientific & Industrial Research, priority 2001, dated 2003)

Tests used:
[1] = tested on: Sh^5eag^1 mutant flies; assay: Spontaneous locomotor activity in flies, pair-wise visual comparison of vials on a scale of '0', '+' or '−'; type: in vivo, Drosophila melanogaster; conditions: baseline NF flies; 73 comparisons; 5th day; 20 flies per vial
Description: To further understand the activity profile of the plant material, flies were treated with either NF or NF containing either ethanol alone (NF+ET) or ethanol and extract both (NF+ET+EX). The ethanol concentration used was 20% (v/v). Other details were as described earlier. On 5th day, spontaneous locomotor activity in flies was pair-wise compared either between NF and NF+ET or between NF+ET and NF+ET+EX. Two vials representing the two treatments were kept side by side in an inverted position. There were 20 flies in each vial. The flies' activity in a group was visually estimated on a scale of ‘0’, ‘+’ or ‘−’, as described below. To compare between NF and NF+ET, the sum total of activity seen in the vial containing NF flies was considered ‘0’. The activity in the NF+ET vial was then given a ‘0’, ‘+’ or ‘−’, depending on whether it is equal, more or less than the activity observed in NF vial respectively. The process was repeated 73 times spanning an entire day. In this test, ethanol treated flies received 23 ‘0’s, no ‘+’ and 50 ‘−’s. […] NF+
ET and NF+ET+EX flies were similarly compared, with the activity in the former serving as baseline, i.e., ‘0’. In this test, NF+ET+EX received no ‘0’, 73 ‘+’5 and no ‘−’. […] First, ethanol decreases spontaneous locomotor activity in flies. Second, Acorus extract increases spontaneous locomotor activity in flies treated with ethanol, a CNS depressant drug.
Having observed a stimulant activity of Acorus extract in flies under the influence of alcohol, the question whether the extract also stimulates normal flies, i.e., individuals not under the drug's influence, was asked. To answer this, spontaneous locomotor activity in NF and NF+EX flies were compared, as described above. NF flies' activity served as the baseline. In the test conducted the extract treated flies received 18 ‘0’5 […] and 2 ‘−’s.

[2] = tested on: Sh^5eag^1 mutant flies; assay: Time of recovery from diethyl ether anesthesia in individual fly pairs; type: in vivo, Drosophila melanogaster; conditions: NF+PS; PS 1 mg/ml in fly food; 10 fly pairs
Description: Standard Drosophila manipulation methods were followed. Cultures were grown on a medium containing maize powder, sugar, yeast and Nipagin. Flies were maintained and further manipulated at room temperature. Experimental conditions were kept identical throughout. The double mutant Sh^5eag^1 was generated using standard methods of Drosophila genetics. Male flies of similar age were used in the experiment. In routine screening, flies were anesthetized in various groups and then allowed to recover in an identical manner. For further testing, individual fly pairs were used as described below. Following different treatments, flies were first anesthetized with diethyl ether and healthy looking individuals shifted to a number of empty vials in such a way that each vial received two flies, one from each treatment. Before shifting, flies from one of the two treatments were marked on their wings for the purpose of identification. Flies were allowed to recover fully. After an hour, each fly pair was subjected to the following test. […]
To understand the above activity, and others, if any, of the Acorus extracts in Drosophila in a quantitative manner, following experiments were carried out using acetone extract as the representative substance. […] First, time of recovery from ether anesthesia was measured in individual flies. […] Following this, recovery time was determined as described earlier. […]

[3] = tested on: Sh^5eag^1 mutant flies; conditions: from Sharma and Kumar, Ser. No. 09/789,525; cited from earlier work

Structure (SMILES)	spontaneous locomotor activity: number of '0's (times equally active) [1]	spontaneous locomotor activity: number of '+'s (times more active) [1]	spontaneous locomotor activity: number of '−'s (times less active) [1]	recovery time from ether anesthesia [2] [min]	effect on recovery from ether anesthesia in flies [3]
CCO [ethanol]	23	no	50		
CCC1(c2ccccc2)C(=O)NC(=O)NC1=O [phenobarbital sodium]				11.3 ± 2.38	causes a delay in recovery
